{"source": "paper PMC5620277", "about": "“The histone methyltransferase EZH2 as a druggable target in SHH medulloblastoma cancer stem cells” (Oncotarget, 2017)", "key": {"DNMT1": {"target": "DNMT1 (Homo sapiens, UniProt P26358)", "sequence (P26358 whole entry, species assumed)": "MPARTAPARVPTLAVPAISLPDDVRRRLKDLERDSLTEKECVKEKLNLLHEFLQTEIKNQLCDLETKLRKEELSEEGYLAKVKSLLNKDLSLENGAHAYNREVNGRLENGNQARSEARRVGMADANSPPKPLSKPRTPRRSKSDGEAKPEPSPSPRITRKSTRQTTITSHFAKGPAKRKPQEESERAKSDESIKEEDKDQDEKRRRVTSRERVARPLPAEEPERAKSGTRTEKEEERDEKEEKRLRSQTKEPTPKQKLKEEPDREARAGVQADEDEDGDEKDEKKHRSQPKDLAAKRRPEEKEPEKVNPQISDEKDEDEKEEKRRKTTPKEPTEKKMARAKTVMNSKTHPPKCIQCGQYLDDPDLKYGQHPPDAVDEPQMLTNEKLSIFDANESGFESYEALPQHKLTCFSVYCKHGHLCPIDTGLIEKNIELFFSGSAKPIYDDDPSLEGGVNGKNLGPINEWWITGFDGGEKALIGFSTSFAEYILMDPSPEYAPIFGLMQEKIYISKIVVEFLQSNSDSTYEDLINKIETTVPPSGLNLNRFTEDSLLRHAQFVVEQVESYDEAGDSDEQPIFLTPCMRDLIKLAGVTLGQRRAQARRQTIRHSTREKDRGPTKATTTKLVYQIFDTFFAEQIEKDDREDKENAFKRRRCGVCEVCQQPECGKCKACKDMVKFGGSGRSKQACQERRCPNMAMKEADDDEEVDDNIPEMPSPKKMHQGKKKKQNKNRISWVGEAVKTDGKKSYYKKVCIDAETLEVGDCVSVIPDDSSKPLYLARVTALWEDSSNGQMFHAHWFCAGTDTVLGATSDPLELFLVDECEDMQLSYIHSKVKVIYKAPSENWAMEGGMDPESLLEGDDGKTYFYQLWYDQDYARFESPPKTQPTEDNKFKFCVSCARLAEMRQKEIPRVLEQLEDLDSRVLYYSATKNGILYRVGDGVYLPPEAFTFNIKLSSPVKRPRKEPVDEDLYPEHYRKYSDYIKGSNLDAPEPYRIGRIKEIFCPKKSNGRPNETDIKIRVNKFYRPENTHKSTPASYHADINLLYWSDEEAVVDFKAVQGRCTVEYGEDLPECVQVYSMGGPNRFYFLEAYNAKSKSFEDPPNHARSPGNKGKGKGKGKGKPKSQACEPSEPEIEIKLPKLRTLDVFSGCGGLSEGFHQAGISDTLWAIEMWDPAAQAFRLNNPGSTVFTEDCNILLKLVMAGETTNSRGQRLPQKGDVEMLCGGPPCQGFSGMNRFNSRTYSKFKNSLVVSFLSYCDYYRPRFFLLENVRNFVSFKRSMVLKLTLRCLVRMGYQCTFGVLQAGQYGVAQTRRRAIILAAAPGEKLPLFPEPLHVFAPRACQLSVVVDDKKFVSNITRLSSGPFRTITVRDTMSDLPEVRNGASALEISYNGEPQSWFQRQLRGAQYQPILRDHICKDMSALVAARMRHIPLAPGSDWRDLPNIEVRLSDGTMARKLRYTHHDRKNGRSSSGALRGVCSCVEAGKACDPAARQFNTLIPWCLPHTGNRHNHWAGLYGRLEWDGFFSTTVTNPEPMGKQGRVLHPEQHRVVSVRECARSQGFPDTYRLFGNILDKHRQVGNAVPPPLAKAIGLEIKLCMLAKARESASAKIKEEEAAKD", "assay": "Methyltransferase panel: DNMT1", "format": "biochemical", "settings": "substrate Poly dI-dC", "protocol": "(§1) MC3629 was tested in the cell free enzymatic assay (EZH2/PRC2) in 10-dose IC50 mode with 2-fold serial dilution starting from 400 μM solution, using various histone substrates (histone H3/H4 octamer, histone H3/H4 tetramer, histone H3, and core histone) and SAM as the co-substrate. […] (Figure 2B, and Supplementary Figure 2).\n(§2) The appropriate methyltransferase (MT) substrate (0.05 mg/ml core histone for EZH1 complex, 0.05 mg/ml oligonucleosomes for DOT1L, 5 μM histone H3 (1-21) peptide for G9a, 0.05 mg/ml nucleosomes for MLL1 complex, 0.05 mg/ml core histone for SET7/9, 5 μM histone H4 for PRMT1, and 0.001 mg/ml poly(dI-dC) for DNMT1) was added in freshly prepared Reaction Buffer (50 mM Tris-HCl (pH 8.5), 5 mM MgCl2, 50 mM NaCl, 0.01% Brij35, 1 mM DTT, 1% DMSO). The MT enzyme was delivered into the substrate solution and the mixture was mixed gently. Afterwards, the tested compound dissolved in DMSO was delivered into the enzyme/substrate reaction mixture by using Acoustic Technology (Echo 550, LabCyte Inc. Sunnyvale, CA) in nanoliter range, and 1 μM ^3H-SAM was also added into the reaction mixture to initiate the reaction. The reaction mixture was incubated for 1 h at 30°C and then it was delivered to filter-paper for detection. The data were analyzed using Excel and GraphPad Prism software for IC50 curve fits (for EZH1 complex)."}, "DAOY-SLCs [1]": {"tested_on": "DAOY-SLCs", "assay": "Cell viability, MTS assay, DAOY-SLCs", "format": "cell-based", "settings": "5 μM, after 48 h", "protocol": "(§3) To evaluate cell viability cells were plated at a density of 5×10^3 cells/well in 96-well plates and were incubated with MTS solution (CellTiter 96® AQueous One Solution Promega)."}, "MLL1 complex": {"target": "MLL1 complex (Homo sapiens, UniProt Q03164)", "assay": "Methyltransferase panel: MLL1 complex", "format": "biochemical", "settings": "substrate nucleosomes", "protocol": "as §1, §2"}, "neural stem cells (NSC)": {"tested_on": "neural stem cells (NSC)", "assay": "Western Blot of H3K27me3 and PCNA in neural stem cells (non-transformed cells)", "format": "cell-based", "settings": "5 μM, 48 h", "protocol": "(§4) Western blots were performed according to standard procedures. Briefly, protein lysates were prepared using RIPA buffer with fresh protease inhibitors. Lysates were separated on SDS polyacrylamide gels. Proteins were transferred on nitrocellulose membrane (0.45 micron) (PerkinElmer). Membranes were blocked for 1 h at room temperature in 5% nonfat dry milk and incubated overnight at 4°C with antibodies against EZH2 (4905S Cell signaling), H3K27me3 (07-449 Millipore), PCNA (2586 Cell signaling), ACTIN (I-19 sc-1616; Santa Cruz Biotechnology), GAPDH (ab9484, Abcam), cleaved CSP-3 (D-175 9661S; Cell Signaling) and H3 (ab1971, Abcam). HRP-conjugated secondary antibodies (Santa Cruz Biotechnology) were used in combination with enhanced chemiluminescence (ECL Amersham)."}, "[2]": {"assay": "PAMPA-BBB (porcine brain lipid extract artificial membrane)", "format": "in vitro ADME", "protocol": "Donor solution (500 μM or 250 μM) was prepared by diluting 10 or 5 mM DMSO compound stock solution using phosphate buffer (pH 7.4, 0.01 M). Filter membrane was coated with 5 μl of BBB-specific lipid solution prepared dissolving 16 mg of PBL (Avanti Lipids Polar, 141101P) in 600 μl of n-dodecane. Donor solution (150 μl) was added to each well of the filter plate. To each well of the acceptor plate 300 μl of solution (5% DMSO in phosphate buffer) were added. Each compound was tested in triplicate. The sandwich was incubated for 24 h at room temperature under gentle shaking. After the incubation time, the sandwich plates were separated and 250 μl of the acceptor plate were transferred to a UV quartz microtiter plate and measured by UV spectroscopy, using a Multiskan GO microplate spectrophotometer (Thermo Scientific) at 250−500 nm at step of 5 nm. Reference solutions (250 μl) were prepared diluting the sample stock solutions to the same concentration as that with no membrane barrier. The BBB permeability value Log Pe is determined applying the equation:\nlog Pe= log{C⋅(−ln(1−[drug]acceptor/[drug]equilibrium))},\nwhere C=(VD⋅VA/(VD+VA)area⋅time)\nIn this equation, VA is the volume of the acceptor compartment (0.3 cm^3), VD is the donor volume (0.15 cm^3), area is the accessible filter area (0.24 cm^2), and time is the incubation time in seconds."}, "DAOY cells [3]": {"tested_on": "DAOY cells", "assay": "Cell viability, MTS assay, DAOY cells", "format": "cell-based", "settings": "5 μM, after 48 h", "protocol": "as §3"}, "mMB-SLCs": {"tested_on": "mMB-SLCs", "assay": "Self-renewal, clonogenic assay, mMB-SLCs", "format": "cell-based, mouse", "settings": "5 μM", "protocol": "For self-renewal assessment, clonogenic assay was performed as previously described. Briefly: oncospheres were disaggregated with non-enzymatic cell dissociation buffer (Sigma) and cells were plated at clonal density (1-2 cells/mm^2) into 96-well plates and cultured for an appropriate number of days (7-15) until oncospheres were countable."}, "SET7/9": {"target": "T1, SET7/9 (Homo sapiens, UniProt Q8WTS6)", "T1 sequence (Q8WTS6 1-366)": "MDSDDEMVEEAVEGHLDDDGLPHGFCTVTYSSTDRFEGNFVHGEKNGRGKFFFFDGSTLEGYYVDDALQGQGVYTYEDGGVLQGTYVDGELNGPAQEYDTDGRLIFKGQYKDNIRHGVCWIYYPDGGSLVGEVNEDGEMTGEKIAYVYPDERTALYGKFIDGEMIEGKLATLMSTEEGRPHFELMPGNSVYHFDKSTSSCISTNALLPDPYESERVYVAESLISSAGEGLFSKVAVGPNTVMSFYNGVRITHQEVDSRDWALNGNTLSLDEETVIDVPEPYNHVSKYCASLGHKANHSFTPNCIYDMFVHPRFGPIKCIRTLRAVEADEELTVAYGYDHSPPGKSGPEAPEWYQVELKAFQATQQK", "assay": "Methyltransferase panel: SET7/9", "format": "biochemical", "settings": "substrate histone H3/H4 octamer", "protocol": "as §1, §2"}, "DAOY cells [4]": {"tested_on": "DAOY cells", "assay": "Western Blot of H3K27me3 and PCNA in DAOY cells", "format": "cell-based", "settings": "5 μM, 48 h", "protocol": "as §3, §4"}, "DAOY-SLCs [5]": {"tested_on": "DAOY-SLCs", "assay": "Cell death (Trypan blue test) in DAOY-SLCs", "format": "cell-based", "settings": "5 μM, 72 h", "protocol": "Trypan blue exclusion test was used to count viable or death cells present in a cell suspension. Each sample was measured in triplicate and repeated at least three times."}, "DOT1L": {"target": "DOT1L (Homo sapiens, UniProt Q8TEK3)", "sequence (Q8TEK3 whole entry, species assumed)": "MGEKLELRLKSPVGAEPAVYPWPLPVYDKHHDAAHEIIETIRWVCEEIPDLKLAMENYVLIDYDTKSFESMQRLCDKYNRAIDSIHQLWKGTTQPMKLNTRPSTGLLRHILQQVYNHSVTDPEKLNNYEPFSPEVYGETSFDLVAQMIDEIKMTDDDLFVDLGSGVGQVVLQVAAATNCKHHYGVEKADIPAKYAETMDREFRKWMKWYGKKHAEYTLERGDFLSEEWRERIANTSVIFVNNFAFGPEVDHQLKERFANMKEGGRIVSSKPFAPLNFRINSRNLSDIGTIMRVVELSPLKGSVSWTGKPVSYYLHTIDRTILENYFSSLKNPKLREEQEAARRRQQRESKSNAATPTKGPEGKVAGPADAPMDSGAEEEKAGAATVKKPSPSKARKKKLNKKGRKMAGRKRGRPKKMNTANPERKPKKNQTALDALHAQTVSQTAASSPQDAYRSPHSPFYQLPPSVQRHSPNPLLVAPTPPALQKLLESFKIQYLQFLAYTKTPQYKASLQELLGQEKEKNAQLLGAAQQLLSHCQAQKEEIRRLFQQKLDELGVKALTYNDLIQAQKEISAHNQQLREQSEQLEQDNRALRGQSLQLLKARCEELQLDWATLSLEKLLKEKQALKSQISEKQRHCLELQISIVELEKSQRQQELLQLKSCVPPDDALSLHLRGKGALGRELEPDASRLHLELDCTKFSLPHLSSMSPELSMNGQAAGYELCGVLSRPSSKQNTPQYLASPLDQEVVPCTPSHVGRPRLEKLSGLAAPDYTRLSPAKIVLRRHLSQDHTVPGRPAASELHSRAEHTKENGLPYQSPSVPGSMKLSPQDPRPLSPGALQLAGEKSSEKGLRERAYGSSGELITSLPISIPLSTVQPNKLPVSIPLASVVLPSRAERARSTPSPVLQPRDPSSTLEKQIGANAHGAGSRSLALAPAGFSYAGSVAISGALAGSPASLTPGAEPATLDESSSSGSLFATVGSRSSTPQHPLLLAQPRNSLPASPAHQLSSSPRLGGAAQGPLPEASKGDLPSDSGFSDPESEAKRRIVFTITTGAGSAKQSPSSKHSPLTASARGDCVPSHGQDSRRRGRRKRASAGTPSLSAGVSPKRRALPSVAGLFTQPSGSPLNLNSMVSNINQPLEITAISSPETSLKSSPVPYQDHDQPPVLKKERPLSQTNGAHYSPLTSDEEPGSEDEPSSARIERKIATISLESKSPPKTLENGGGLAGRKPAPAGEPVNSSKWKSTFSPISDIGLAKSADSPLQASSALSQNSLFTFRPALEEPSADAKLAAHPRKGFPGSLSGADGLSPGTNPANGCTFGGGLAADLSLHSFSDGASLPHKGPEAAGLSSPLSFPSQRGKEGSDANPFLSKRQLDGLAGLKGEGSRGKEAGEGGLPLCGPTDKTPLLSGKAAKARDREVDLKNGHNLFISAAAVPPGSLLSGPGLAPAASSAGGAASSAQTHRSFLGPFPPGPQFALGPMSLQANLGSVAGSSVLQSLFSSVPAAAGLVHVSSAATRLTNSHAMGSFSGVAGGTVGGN", "assay": "Methyltransferase panel: DOT1L", "format": "biochemical", "settings": "substrate nucleosomes", "protocol": "as §1, §2"}, "hMB-SLCs": {"tested_on": "hMB-SLCs", "assay": "Western Blot of H3K27me3, PCNA, cleaved caspase 3 in hMB-SLCs", "format": "cell-based, human", "settings": "5 μM, 48 h", "protocol": "as §3, §4"}}}
{"smiles": "Cc1cc(C)c(CNC(=O)c2cnn(-c3ccccc3)c2C)c(=O)[nH]1", "note": "[MC3629, N-((4,6-dimethyl-2-oxo-1,2-dihydropyridin-3-yl)methyl)-5-methyl-1-phenyl-1H-pyrazole-4-carboxamide]", "values": [{"measurement": "inhibition at 200 µM", "setting": "DNMT1", "value": 0, "unit": "%"}, {"measurement": "cell viability", "setting": "DAOY-SLCs [1]", "value": "impaired cell viability"}, {"measurement": "inhibition at 200 µM", "setting": "MLL1 complex", "value": 20.7, "unit": "%"}, {"measurement": "H3K27me3 and PCNA protein levels", "setting": "neural stem cells (NSC)", "value": "did not observe any effects"}, {"measurement": "Papp at 24 h", "setting": "[2]; Pe in cm/s, pH 7.4, 24 h, room temperature, triplicate, read-out: Log Pe (converted)", "value": 4.68, "unit": "×10⁻⁶ cm/s"}, {"measurement": "Δ Log Pe", "setting": "[2]; respect to propranolol", "value": "−0.12"}, {"measurement": "cell viability", "setting": "DAOY cells [3]", "value": "impaired cell viability"}, {"measurement": "self-renewal", "setting": "mMB-SLCs", "value": "significantly reduced"}, {"measurement": "inhibition at 200 µM", "setting": "SET7/9", "value": 5.2, "unit": "%"}, {"measurement": "H3K27me3 and PCNA levels", "setting": "DAOY cells [4]", "value": "impaired"}, {"measurement": "cell death", "setting": "DAOY-SLCs [5]", "value": "induced cell death"}, {"measurement": "inhibition at 200 µM", "setting": "DOT1L", "value": 3, "unit": "%"}, {"measurement": "H3K27me3 and PCNA protein levels", "setting": "hMB-SLCs", "value": "significantly impaired"}, {"measurement": "apoptosis, level of cleaved caspase 3", "setting": "hMB-SLCs", "value": "induced apoptosis"}]}
